# Assay results from BindingDB's records for doi:10.1021/jm100306a (University of Pennsylvania, 2010).
# Molecular target: T1, Arginase-1 (Homo sapiens, UniProt P05089)
# T1 sequence (P05089 whole entry): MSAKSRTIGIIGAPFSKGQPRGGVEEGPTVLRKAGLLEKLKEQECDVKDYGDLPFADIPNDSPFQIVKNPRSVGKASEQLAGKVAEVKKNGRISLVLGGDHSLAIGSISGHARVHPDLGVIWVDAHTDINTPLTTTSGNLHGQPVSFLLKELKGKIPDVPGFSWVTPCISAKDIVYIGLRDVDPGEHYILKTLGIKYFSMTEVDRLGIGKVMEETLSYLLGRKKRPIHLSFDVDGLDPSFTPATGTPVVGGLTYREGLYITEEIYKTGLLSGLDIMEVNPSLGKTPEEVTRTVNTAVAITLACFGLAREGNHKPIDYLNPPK
# Test: Inhibition of human recombinant full length arginase 1 expressed in Escherichia coli BL21(DE3) by fixed point assay
structure (smiles),measurement,value
Nc1ncc(CCCC(N)C(=O)O)[nH]1 (stereo unspecified) [2-amino-5-(2-aminoimidazol-4-yl)pentanoic acid],Ki,> 800 mM
